Test results taken from patent US20200348280A1, “METHODS FOR PREDICTING CANCER DRUG RESPONSIVENESS” (Eutropics Pharmaceuticals, Inc., priority 2018, published 2020).

Key:
SEV-Bcl-xL-Bim cells = assay: Flow cytometry HSBXB/Bcl-xL signal ratio in SEV-Bcl-xL-Bim cells; type: cell-based, human; settings: 2 hours semi-permeabilized or 16 hours intact cells, flow cytometry (FIG. 14)
Procedure: In FIG. 14A, human seminal endothelial vesicle cells overexpressing ectopic Bcl-xL and Bim (SEV-Bcl-xL-Bim[ref]) were treated with A-1155463 at the indicated concentrations for 2 hours in semi-permeabilized cells, fixed, and then […] HSBXB or Bcl-xL antibody corrected to IgG-2A isotype. The ratio of the signals (y-axis) were collected flow cytometry. In FIG. 14B, intact SEV-Bcl-xL/Bim cells were treated with A-1155463 for 16 hours, fixed and stained as in FIG. 14A. The ratio of HSBXB and Bcl-xL signal was calculated as a percentage as shown below: […]

[1] = molecular target: T1, Bcl-xL/Bim heterodimer in Bcl-xL expressing ATH66 cells (Homo sapiens, UniProt Q07817); assay: Flow cytometry HSBXB/Bcl-xL signal after BH3 mimetic treatment; type: cell-based
T1 construct: endogenous in cells; host or cells: ATH66 cells
T1 sequence (Q07817 whole entry, species assumed, one chain of several): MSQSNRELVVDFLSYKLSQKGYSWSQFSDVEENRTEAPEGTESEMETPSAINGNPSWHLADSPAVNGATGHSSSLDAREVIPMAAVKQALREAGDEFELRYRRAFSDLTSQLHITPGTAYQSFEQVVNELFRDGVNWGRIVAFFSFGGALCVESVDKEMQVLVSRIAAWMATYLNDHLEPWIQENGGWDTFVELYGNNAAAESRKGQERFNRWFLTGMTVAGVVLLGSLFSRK
Description: FIG. 8 consists of two graphs that show how the Bcl-xL selective BH3 mimetic (A1155463) shifts the HSBXB heterodimer signal detected in cancer cells. For each series, the left bar is HSBXB signal and the right bar is total Bcl-xL. […] The term “I/C” on the x-axis of the graph refers to “isotype control.” and the term “CC” on the x-axis of the graph refers to the non-stained or “clean control.” The signal was detected using Flow Cytometry.
In these experiments, Bcl-xL expressing ATH66 cells were treated with the compound for 16 hours, then fixed with paraformaldehyde, permeabilized with non-ionic detergent and stained with HSBXB-FITC and with anti-Bcl-xL-Rhodamine. The signals were resolved using flow cytometry. The ratio of the signals provided the Bcl-xL priming index.

HCC1937 cells = assay: Immunofluorescence localization of Bcl-xL and HSBXB; type: cell-based, human; settings: IF (FIG. 19)
Procedure: A quantitative analysis was performed using the software Zen 2011 (Blue edition, Carl Zeiss). For each panel, the bar at the far left is Mito-BCL-XL, the next bar is Mito-HSBXB, the next bar is Bcl-XL-HSBXB, the next bar is Bcl-XL-DAPI, and the bar on the far right is HSBXB-DAPI. […] Immunofluorescence (IF) stainings of the HSBXB antibody and the Bcl-XL inhibitor, A-1331852, are shown in FIG. 17 in untreated human breast cancer cells, HCC1937 and BT-474. IF stainings and relative signal intensity were obtained from human breast cancer cells, HCC1937, treated with or without the A-1331852 inhibitor, or treated with or without the HSBXB antibody, as shown in FIG. 18.

HCC1937 = assay: Drug response (cell viability) in breast cancer cells; type: cell-based; settings: HCC1937 human breast cancer cells
Description: (§1) FIG. 16A, and FIG. 16B are graphs showing drug response to A1331852 in breast cancer (BC) cells.
(§2) Drug response to the Bcl-xL inhibitor, A-1331852, or the MEK inhibitor, Selumetinib, was compared in two types of human breast cancer cells, HCC1937 and BT-474, as shown in FIG. 16A and FIG. 16B. […] Immunofluorescence (IF) stainings of the HSBXB antibody and the Bcl-XL inhibitor, A-1331852, are shown in FIG. 17 in untreated human breast cancer cells, HCC1937 and BT-474. IF stainings and relative signal intensity were obtained from human breast cancer cells, HCC1937, treated with or without the A-1331852 inhibitor, or treated with or without the HSBXB antibody, as shown in FIG. 18.

BT-474 = assay: as above; type: cell-based; settings: BT-474 human breast cancer cells
Description: as §1, §2

[2] = molecular target: T2, Bcl-xL-GST/Full length BIM protein (Homo sapiens, UniProt Q07817); assay: ELISA, inhibition of HSBXB signal on Bcl-xL-GST/full length BIM heterodimer; type: binding; settings: heterodimers formed with full length Bim protein
T2 construct: cloned and mutated to delete their transmembrane domains; made in house; host or cells: E. coli BL21
T2 sequence (Q07817 1-209 limits assumed): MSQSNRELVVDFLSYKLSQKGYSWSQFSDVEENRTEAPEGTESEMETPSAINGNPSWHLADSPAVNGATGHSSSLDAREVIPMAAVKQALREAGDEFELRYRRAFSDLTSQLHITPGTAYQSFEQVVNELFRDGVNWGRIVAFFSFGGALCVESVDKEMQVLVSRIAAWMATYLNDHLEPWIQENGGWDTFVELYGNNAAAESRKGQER
Procedure: The compound was added to the ELISA plates after addition of peptides and before adding the monoclonal antibody.
(§3) To further characterize HSBXB, the antibody was assessed under conditions where Bcl-xL/Bim binding, mediated by the BH3 domain of Bim, was inhibited. […] In the experiment shown in FIG. 13A, Bcl-xL-GST was bound to glutathione-coated ELISA plates. Bim-BH3 peptide was then added, or not added as a control, and HSBXB antibody was used to detect complex formation. […] Non-covalent Bcl-xL-GST/Bim BH3 heterodimer was bound to glutathione-coated ELISA plates and treated with ABT-263. ABT-263 was then added to the ELISA plates after addition of peptides and before adding the monoclonal antibody.

[3] = molecular target: T3, Bcl-xL-GST/Bim BH3 heterodimer (Homo sapiens, UniProt Q07817); assay: ELISA, inhibition of HSBXB signal on non-covalent Bcl-xL-GST/Bim BH3 heterodimer; type: binding; settings: heterodimers formed with peptide comprising the BH3 domain of Bim; compound added after peptides, before antibody
T3 construct: cloned and mutated to delete their transmembrane domains; made in house; host or cells: E. coli BL21
T3 sequence (Q07817 1-209 limits assumed, one chain of several): as the sequence (Q07817 1-209 limits assumed) above
Procedure: as §3

Compound: CN(C)CC#Cc1ccc(OCCCc2sc(N3CCc4cccc(C(=O)Nc5nc6ccccc6s5)c4C3)nc2C(=O)O)c(F)c1 [A-1155463]
- HSBXB signal (ratio of HSBXB and Bcl-xL signal) (SEV-Bcl-xL-Bim cells): HSBXB signal shifts
- Bcl-xL priming index (ratio of HSBXB-FITC and anti-Bcl-xL-Rhodamine signals) ([1]; ATH66 cells treated for 16 hours, flow cytometry): diminish over a time course that coincided with the occurrence of apoptosis
- HSBXB heterodimer signal ([1]; sub-lethal dose, 16 hours, flow cytometry (FIG. 8)): lose signal after 16 hours

Compound: Cc1c(-c2ccc(N3CCc4cccc(C(=O)Nc5nc6ccccc6s5)c4C3)nc2C(=O)O)cnn1CC12CC3CC(CC(C3)C1)C2 [A-1331852]
- localization of Bcl-xL and HSBXB (HCC1937 cells): Changes in the localization of Bcl-xL and HSBXB
- cell viability (HCC1937): decrease in cell viability
- cell viability (BT-474): decrease in cell viability

Compound: CC1(C)CCC(c2ccc(Cl)cc2)=C(CN2CCN(c3ccc(C(=O)NS(=O)(=O)c4ccc(N[C@H](CCN5CCOCC5)CSc5ccccc5)c(S(=O)(=O)C(F)(F)F)c4)cc3)CC2)C1 [ABT-263]
- inhibition of heterodimer antibody (HSBXB) signal [2]: dose-dependent inhibition of heterodimer antibody signal
- inhibition of heterodimer antibody (HSBXB) signal [3]: dose-dependent inhibition of heterodimer antibody signal
